From patent publication US8324222B2, “Cyclically substituted furopyrimidine derivatives and use thereof” (Bayer Intellectual Property GmbH, priority 2005, dated 2012)

Biological target: T1, prostacyclin receptors (IP receptors) of human thrombocyte membranes (Homo sapiens, UniProt P43119)
T1 construct: 300-1000 μg/ml human thrombocyte membranes per charge; tissue Maco Pharma, Langen (buffy coats); host or cells: human thrombocyte (platelet) membranes prepared from human blood buffy coats
Assay: Binding to prostacyclin receptors (IP receptors) of human thrombocyte membranes (3H-Iloprost displacement)
Details: 3 nM 3H-Iloprost, 60 min, room temperature
Experimental: B-1. Studies of Binding to Prostacyclin Receptors (IP Receptors) of Human Thrombocyte Membranes
Thrombocyte membranes are obtained by centrifuging 50 ml human blood (Buffy coats with CDP Stabilizer, from Maco Pharma, Langen) for 20 min at 160×g. Remove the supernatant (platelet-rich plasma, PRP) and then centrifuge again at 2000×g for 10 min at room temperature. Resuspend the sediment in 50 mM tris-(hydroxymethyl)-aminomethane, which has been adjusted to a pH of 7.4 with 1 N hydrochloric acid, and store at −20° C. overnight. On the next day, centrifuge the suspension at 80000×g and 4° C. for 30 minDiscard the supernatant. Resuspend the sediment in 50 mM tris-(hydroxymethyl)-aminomethane/hydrochloric acid, 0.25 mM ethylene diamine tetraacetic acid (EDTA), pH 7.4, and then centrifuge once again at 80000×g and 4° C. for 30 min. Take up the membrane sediment in binding buffer (50 mM tris-(hydroxymethyl)-aminomethane/hydrochloric acid, 5 mM magnesium chloride, pH 7.4) and store at −70° C. until the binding test.
For the binding test, incubate 3.nM ^3H-Iloprost (592 GBq/mmol, from AmershamBioscience) for 60 min with 300-1000 μg/ml human thrombocyte membranes per charge (max. 0.2 ml) in the presence of the test substances at room temperature. After stopping, add cold binding buffer to the membranes and wash with 0.1% bovine serum albumin. After adding Ultima Gold Scintillator, quantify the radioactivity bound to the membranes using a scintillation counter. The nonspecific binding is defined as radioactivity in the presence of 1 μM Iloprost (from Cayman Chemical, Ann Arbor) and is as a rule <25% of the bound total radioactivity. The binding data (IC50 values) are determined using the program GraphPad Prism Version 3.02.

T1 sequence (P43119 whole entry): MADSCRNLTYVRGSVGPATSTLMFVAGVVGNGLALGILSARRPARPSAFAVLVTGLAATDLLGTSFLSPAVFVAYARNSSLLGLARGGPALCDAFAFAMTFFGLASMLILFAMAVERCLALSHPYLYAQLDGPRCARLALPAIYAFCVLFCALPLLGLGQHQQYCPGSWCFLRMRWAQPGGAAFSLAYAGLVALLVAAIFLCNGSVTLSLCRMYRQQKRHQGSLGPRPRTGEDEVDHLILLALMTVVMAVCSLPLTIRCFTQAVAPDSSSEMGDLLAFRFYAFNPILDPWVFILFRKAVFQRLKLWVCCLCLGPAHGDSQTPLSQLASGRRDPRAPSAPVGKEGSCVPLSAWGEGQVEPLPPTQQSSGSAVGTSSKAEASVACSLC

| SMILES | IC50 [nM] |
| --- | --- |
| COc1ccc(-c2c(-c3ccccc3)oc3ncnc(O[C@H]4CCC[C@H](OCC(=O)O)C4)c23)cc1 (racemic) [Example 69] | 8 |
| CCc1ccc(-c2c(-c3ccccc3)oc3ncnc(N[C@H]4CCC[C@H](OCC(=O)O)C4)c23)cc1 (racemic) [Example 146] | 20 |
| COc1ccc(-c2c(-c3ccccc3)oc3ncnc(O[C@H]4CCC[C@@H](OCC(=O)O)C4)c23)cc1 (single isomer, unassigned) [Example 67] | 388 |
| COc1ccc(-c2c(-c3ccccc3)oc3ncnc(O[C@H]4CCC[C@@H](OCC(=O)O)C4)c23)cc1 (single isomer, unassigned) [Example 68] | 34 |
| CCc1ccc(-c2c(-c3ccccc3)oc3ncnc(O[C@@H]4CCCN(CCCC(=O)O)C4)c23)cc1F (single isomer, unassigned) [Example 159] | 83 |
| O=C(O)COc1cccc(Nc2ncnc3oc(-c4ccccc4)c(-c4ccc(F)cc4)c23)c1 [Example 6, 3-{[5-(4-Fluorophenyl)-6-phenylfuro[2,3-d]pyrimidin-4-yl]amino}phenoxyacetic acid] | 237 |
| COC(=O)COc1cccc(Nc2ncnc3oc(-c4ccccc4)c(-c4ccc(OC)cc4)c23)c1 [Example 9, 3-{[5-(4-methoxyphenyl)-6-phenylfuro[2,3-d]pyrimidin-4-yl]amino}phenoxyacetic acid methyl ester] | 43 |
| COc1ccc(-c2c(-c3ccccc3)oc3ncnc(Nc4cccc(OCC(=O)O)c4)c23)cc1 [Example 10, 3-{[5-(4-Methoxyphenyl)-6-phenylfuro[2,3-d]pyrimidin-4-yl]amino}phenoxyacetic acid] | 18 |
| COc1ccc(-c2c(-c3ccccc3)oc3ncnc(Nc4cccc(/C=C/C(=O)O)c4)c23)cc1 [Example 21, (2E)-3-(3-{[5-(4-Methoxyphenyl)-6-phenylfuro[2,3-d]pyrimidin-4-yl]amino}phenyl)acrylic acid] | 11 |
| COc1ccc(-c2c(-c3ccccc3)oc3ncnc(Oc4ccc(CCC(=O)O)cc4)c23)cc1 [Example 24, 3-(4-{[5-(4-Methoxyphenyl)-6-phenylfuro[2,3-d]pyrimidin-4-yl]oxy}phenyl)propanoic acid] | 15 |
| COc1ccc(-c2c(-c3ccccc3)oc3ncnc(OC4CCCN(CCCC(=O)O)C4)c23)cc1 (centres unmarked) [Example 84] | 152 |
| COc1ccc(-c2c(-c3ccccc3)oc3ncnc(N[C@H]4CCC[C@H](OCC(=O)O)C4)c23)cc1 [Example 87] | 17 |
| COc1ccc(-c2c(-c3ccccc3)oc3ncnc(O[C@@H]4CCCN(CCc5nnn[nH]5)C4)c23)cc1 [Example 99] | 34 |
| CCc1ccc(-c2c(-c3ccccc3)oc3ncnc(O[C@@H]4CCCN(CCCC(=O)O)C4)c23)cc1 [Example 154] | 28 |
| O=C(O)CO[C@@H]1CCC[C@H](Oc2ncnc3oc(-c4ccccc4)c(-c4ccc(Cl)cc4)c23)C1 [Example 156] | 293 |
| COc1ccc(-c2c(-c3ccccc3)oc3ncnc(O[C@H]4CC[C@H](OCC(=O)O)C4)c23)cc1 [Example 162] | 37 |
| COc1ccc(-c2c(-c3ccccc3)oc3ncnc(N[C@H]4CC[C@@H](OCC(=O)O)C4)c23)cc1 [Example 168] | 71 |
| COc1ccc(-c2c(-c3ccccc3)oc3ncnc(N[C@@H]4CC[C@@H](OCC(=O)O)C4)c23)cc1 [Example 170] | 6 |
| CCc1ccc(-c2c(-c3ccccc3)oc3ncnc(O[C@@H]4C=C[C@@H](OCC(=O)O)C4)c23)cc1 [Example 175] | 13 |
| CCc1ccc(-c2c(-c3ccccc3)oc3ncnc(N[C@@H]4C=C[C@@H](OCC(=O)O)C4)c23)cc1 [Example 176] | 24 |
| CCc1ccc(-c2c(-c3ccccc3F)oc3ncnc(O[C@@H]4CCCN(CCCC(=O)O)C4)c23)cc1 [Example 181, 4-[(3R)-3-{[5-(4-Ethylphenyl)-6-(2-fluorophenyl)furo[2,3-d]pyrimidin-4-yl]oxy}piperidin-1-yl]-butyric acid] | 27 |
| COC(=O)CCCN1CCC[C@@H](Oc2ncnc3oc(-c4ccccc4F)c(-c4ccc(OC)cc4)c23)C1 [Example 183, 4-[(3R)-3-{[6-(2-Fluorophenyl)-5-(4-methoxyphenyl)furo[2,3-d]pyrimidin-4-yl]oxy}piperidin-1-yl]butyric acid methyl ester] | 218 |

System: not given
Assay: not given
Details: rapid non-enzymatic transformation to inactive metabolite 6-keto-prostaglandin-F1alpha; cited from earlier work

| SMILES | half-life |
| --- | --- |
| CCCCC[C@H](O)/C=C/[C@@H]1[C@H]2C/C(=C/CCCC(=O)O)O[C@H]2C[C@H]1O [PGI2, Prostacyclin] | approx. 3 minutes |
